Measured values as given in patent publication US5616342A, “Emulsioin suitable for administering a poorly water-soluble photosensitizing compound and use thereof” (PDT, Inc., priority 1995, dated 1997).

Tests used:
[1] = general health / adverse events after drug-emulsion treatment (Example 4); assay type: in vivo, Fischer 344 rats; details: i.v. bolus in emulsion plus red light, 30 days
Experimental: (§1) Fischer 344 rats, engrafted with transplantable, chemically-induced (FANFT) urothelial tumors, were treated with tin ethyl etiopurpurin (SnEt2) and red light (660 nm). SnEt2 was administered as a bolus injection via lateral tail vein, using the emulsion described by the present invention. Tumor response was assessed in groups of nine animals injected with one of four doses of drug and exposed to one of three different doses of light, as summarized in FIG. 1. Control animals received emulsion vehicle without drug. Animals were monitored for tumor re-growth, tissue changes at treatment site, and general health three times per week for a period of 30 days after light treatment.

[2] = SnEt2 drug solubility in MCT oil with excipient combinations (Example 1); details: invention emulsion
Experimental: After incubating for 30 minutes at 55° C., the tubes stand overnight at room temperature (19°-22° C). The tubes are centrifuged to remove bulk precipitates, and supernatants are filtered through 0.45 μm nylon membrane to remove any undissolved drug. Aliquots of filtrate are then diluted in chloroform:isopropyl alcohol (1:1) for spectrophotometric determination of drug concentration (absorbance at 662 nm). Reference standards are prepared with known concentrations of SnEt2 in the same solvent.

[3] = test system: transplantable, FANFT-induced, urothelial tumors; assay: photodynamic treatment of transplantable FANFT-induced urothelial tumors with SnEt2 emulsion and red light (Example 4); assay type: in vivo, Fischer 344 rats
Experimental: as §1
By determining the number of tumor-free rats 30 days after each treatment, tumor dose-response curves for drug and light were generated, shown in FIG. 1.

[4] = Experimental: Mixtures of MCT oil, egg phospholipids, ethanol, and SnEt2 were incubated with different bile salts, all at 4.6 mM^1, under the same conditions described above in Example 1.
[5] = pH 8.0
Experimental: In particular, net electronegative charge (Zeta potential) on the emulsified oil droplets is measured by changes in electrophoretic mobility at pH 8.0 (Malvern Zetasizer 2c). […] A relationship between Zeta potential and physical stability of colloidal systems has been documented.

| Compound | adverse clinical events [1] | deaths attributable to drug-emulsion treatment [1] | SnEt2 concentration delivered by the present invention relative to 0.08 mg/ml [2] | dose and light response by the tumor ([3]; four drug doses, three light doses, 30 days) | tumor treatment outcome ([3]; i.v. bolus in emulsion, red laser light 660 nm, 30 days after treatment) | SnEt2 Concentration [4] [mg/gm Oil] | SnEt2 Concentration Normalized [4] | effect on Zeta potential of phospholipid-stabilized emulsions [5] |
| --- | --- | --- | --- | --- | --- | --- | --- | --- |
| CCOC(=O)C1=Cc2c3nc(cc4nc(cc5[n-]c(cc6[n-]c2c(C)c6CC)c(C)c5CC)C(C)=C4CC)[C@@H](C)[C@]13CC.[Cl-].[Cl-].[Sn] (racemic) [SnEt2, Tin ethyl etiopurpurin] | No adverse clinical events were observed | no deaths occurred | over ten times | A dose and light response by the tumor was demonstrated | effective in the treatment | 1.26 | 1.00 |  |
| C[C@H](CCC(=O)O)[C@H]1CC[C@H]2[C@@H]3[C@H](O)C[C@@H]4C[C@H](O)CC[C@]4(C)[C@H]3C[C@H](O)[C@]12C [sodium cholate] |  |  |  |  |  |  |  | increases the Zeta potential |
